2 molecules from US9486506B2 (Novo Nordisk A/S, priority 2011, dated 2016) can be followed below.

In this experiment the target is T1, glucagon receptor (Homo sapiens, UniProt P47871).
T1 construct: expressed in transfected cells
Briefly: Assay (I) Glucagon activity (cAMP biosensor, FLIPR). It is filed as cell-based.

Numbered stars: 1 amine (or outer) side, 2 acyl side, 3 side chain; on linkers, the order of the positions; unused ones are H or OH. Side chains are listed from the residue outwards. Peptide text beside a SMILES is read from it. * marks the point of attachment. C18 diacid = O=C(O)CCCCCCCCCCCCCCCCC(=O)*; γGlu = O=C(O)[C@H](CCC(=O)[*:2])N[*:1]; AEEA = NCCOCCOCC(=O)O

T1 sequence (P47871 26-477): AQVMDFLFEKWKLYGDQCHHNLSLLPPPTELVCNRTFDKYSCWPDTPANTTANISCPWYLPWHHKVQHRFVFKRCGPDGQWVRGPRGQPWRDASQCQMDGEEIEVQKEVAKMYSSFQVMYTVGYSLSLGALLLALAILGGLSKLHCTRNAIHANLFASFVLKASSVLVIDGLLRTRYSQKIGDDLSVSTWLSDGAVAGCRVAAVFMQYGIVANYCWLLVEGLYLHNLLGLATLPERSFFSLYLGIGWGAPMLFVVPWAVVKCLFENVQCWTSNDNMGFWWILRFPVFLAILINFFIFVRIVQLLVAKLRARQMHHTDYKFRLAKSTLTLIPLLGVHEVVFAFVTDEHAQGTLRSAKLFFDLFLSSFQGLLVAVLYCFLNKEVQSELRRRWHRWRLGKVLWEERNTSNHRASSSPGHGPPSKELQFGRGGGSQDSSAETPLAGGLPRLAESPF

A word on the EC50: it is the midpoint of the concentration-response curve. With `CC(C)C[C@H](NC(=O)[C@H](CC(=O)O)NC(=O)[C@H](CC(C)C)NC(=O)[C@H](Cc1ccc(O)cc1)NC(=O)[C@H](CCCNC(=N)N)NC(=O)[C@H](CO)NC(=O)[C@H](Cc1ccc(O)cc1)NC(=O)[C@H](CC(=O)O)NC(=O)[C@H](CO)NC(=O)[C@@H](NC(=O)[C@H](Cc1ccccc1)NC(=O)[C@@H](NC(=O)CNC(=O)[C@H](CCC(N)=O)NC(=O)[C@H](CO)NC(=O)[C@@H](N)Cc1c[nH]cn1)[C@@H](C)O)[C@@H](C)O)C(=O)N[C@@H](CCCNC(=N)N)C(=O)N[C@@H](CCCNC(=N)N)C(=O)N[C@@H](C)C(=O)N[C@@H](CCC(N)=O)C(=O)N[C@@H](CC(=O)O)C(=O)N[C@@H](Cc1ccccc1)C(=O)N[C@H](C(=O)N[C@@H](CCCCNC(=O)CC[C@H](NC(=O)CC[C@H](NC(=O)COCCOCCNC(=O)COCCOCCNC(=O)CC[C@H](NC(=O)CCCCCCCCCCCCCCCCC(=O)O)C(=O)O)C(=O)O)C(=O)O)C(=O)N[C@@H](Cc1c[nH]c2ccccc12)C(=O)N[C@@H](CC(C)C)C(=O)N[C@@H](CCC(=O)O)C(=O)N[C@@H](CO)C(=O)N[C@H](C(=O)O)[C@@H](C)O)C(C)C` [Example 47, N^ε24-[(4S)-4-carboxy-4-[[(4S)-4-carboxy-4-[[2-[2-[2-[[2-[2-[2-[[(4S)-4-carboxy-4-(17-carboxyheptadecanoylamino)butanoyl]amino]ethoxy]ethoxy]acetyl]amino]ethoxy]ethoxy]acetyl]amino]butanoyl]amino]butanoyl]-[Arg12,Leu16,Lys24,Glu27,Ser28]-Glucagon] (H-HSQGTFTSDYSRYLDLRRAQDFVK([γGlu-γGlu-AEEA-AEEA-γGlu-C18 diacid])WLEST-OH), the EC50 was 0.136 nM.
Consider `CC(C)C[C@H](NC(=O)[C@H](CC(N)=O)NC(=O)[C@H](CC(C)C)NC(=O)[C@H](CC(C)C)NC(=O)[C@H](Cc1c[nH]c2ccccc12)NC(=O)[C@H](CCCCNC(=O)CC[C@H](NC(=O)COCCOCCNC(=O)COCCOCCNC(=O)CC[C@H](NC(=O)CCCCCCCCCCCCCCCCC(=O)O)C(=O)O)C(=O)O)NC(=O)[C@@H](NC(=O)[C@H](Cc1ccccc1)NC(=O)[C@H](CCC(=O)O)NC(=O)[C@H](CCC(N)=O)NC(=O)[C@H](C)NC(=O)[C@H](CCCNC(=N)N)NC(=O)[C@H](CCCNC(=N)N)NC(=O)[C@@H](NC(=O)[C@H](CC(=O)O)NC(=O)[C@H](CC(C)C)NC(=O)[C@H](Cc1ccc(O)cc1)NC(=O)[C@H](CCCCN)NC(=O)[C@H](CO)NC(=O)[C@H](Cc1ccc(O)cc1)NC(=O)[C@H](CC(=O)O)NC(=O)[C@H](CO)NC(=O)[C@@H](NC(=O)[C@H](Cc1ccccc1)NC(=O)[C@@H](NC(=O)CNC(=O)[C@H](CCC(N)=O)NC(=O)[C@H](CO)NC(=O)[C@@H](N)Cc1c[nH]cn1)[C@@H](C)O)[C@@H](C)O)[C@@H](C)O)C(C)C)C(=O)O` [Example 37, N^ε24-[(4S)-4-carboxy-4-[[2-[2-[2-[[2-[2-[2-[[(4S)-4-carboxy-4-(17-carboxyheptadecanoylamino)butanoyl]amino]ethoxy]ethoxy]acetyl]amino]ethoxy]ethoxy]acetyl]amino]butanoyl]-[Thr16,Glu21,Lys24,Leu27,Leu29]-Glucagon] (H-HSQGTFTSDYSKYLDTRRAQEFVK([γGlu-AEEA-AEEA-γGlu-C18 diacid])WLLNL-OH), for which the EC50 is 0.183 nM.
